{
  "source": "patent US20080038251A1",
  "about": "“MN/CA IX and MAPK inhibition” (priority 2006, published 2008)",
  "key": {"MEK": {"tested_on": "MEK", "settings": "biochemical assays; cited from earlier work"}, "tumor xenograft models": {"tested_on": "tumor xenograft models", "settings": "cited from earlier work"}, "[1]": {"settings": "compared with CI-1040; cited from earlier work"}, "[2]": {"settings": "compared with CI-1040; cited from earlier work", "remark": "listed apart in the source"}, "[3]": {"settings": "compared with CI-1040; cited from earlier work", "remark": "listed apart in the source"}, "PR1-HRE CA9 promoter [4]": {"tested_on": "PR1-HRE CA9 promoter", "experiment": "PR1-HRE-luc CA9 promoter luciferase-renilla reporter assay in HEK293 cells", "type": "cell-based, human", "procedure": "The inventors used PR1-HRE promoter region of CA9 ([…]) that contains HRE element and SP1 binding site, and assessed its transcriptional activity in luciferase-renilla reporter system. First, the PR1-HRE-luc plasmid was co-transfected together with renilla internal standard to HEK293 cells plated in high density and treated by the U0126 inhibitor of ERK (MAP kinases) for 20 h (FIG. 8). The promoter activity was analyzed in the transfected cells incubated in normoxic conditions or in the presence of DFO that can induce a chemical hypoxia. The promoter activity was determined as a ratio between the luciferase-related luminescence and renilla-related luminescence.\n(§1) The PR1-HRE-luc promoter construct was generated by an insertion of a −50/+37 CA9 genomic region amplified by PCR upstream of the firefly luciferase gene in pGL3-Basic luciferase reporter vector (Promega). pRL-TK renilla vector (Promega) served for the control of the transfection efficiency."}, "PR1-HRE CA9 promoter [5]": {"tested_on": "PR1-HRE CA9 promoter", "experiment": "PR1-HRE-luc CA9 promoter luciferase-renilla reporter assay in HeLa cells", "type": "cell-based, human", "excerpt": "as §1\nTherefore, the inventors have cloned a −50/+37 CA9 genomic region, containing that module in its natural context relative to the transcription start site, upstream of the reporter luciferase gene. The PR1-HRE-luc promoter construct was then co-transfected with the renilla-coding control plasmid to HeLa cells that express CA IX protein in response to hypoxia and high cell density."}, "CA IX protein": {"tested_on": "CA IX protein", "experiment": "Immunoblotting of endogenous CA IX protein expression in HeLa cells", "type": "cell-based, human", "settings": "data not shown; for CA IX protein level / hypoxic induction of CA IX protein: Example 9, hypoxia", "procedure": "HeLa cells were plated in dense (80,000 cells/cm^2) and sparse (10,000 cells/cm^2) cultures and incubated for 24 h. […] Parallel control dishes were pre-treated and maintained in normoxia for the same time period.\nFor the detection of CA IX, the cells were extracted with cold RIPA buffer for 15 min at 4° C. The extracts were then centrifuged (15 min at 13,000 rpm) and total protein concentrations were determined by BCA assay (Pierce, Rockford, Ill.). Samples of 30 μg total proteins were separated by the electrophoresis using 10% SDS-PAGE and blotted onto the PVDF membrane. Before immunodetection, the membrane was treated by the blocking buffer containing 5% non-fat milk in PBS with 0.2% Nonidet P-40 for 1 h and incubated for 1 h with M75 MAb diluted 1:2 in the blocking buffer. Then the membrane was washed, incubated for 1 h with the anti-mouse secondary antibody, washed again and developed with the ECL detection system. Intensity of CA IX-specific bands was analyzed by the Scion Image Beta 4.02 software (Scion Corporation, Frederick, Md.), and relative CA IX expression was expressed as percentages."}, "PR1-HRE CA9 promoter [6]": {"tested_on": "PR1-HRE CA9 promoter", "description": "To dissect a direct contribution of HIF-1 to transcriptional activation of CA9 promoter, the inventors performed an additional experiment using Ka1.13 cell line that is defective for HIF-1α. The Ka1.13 cells were transfected either with PR1-HRE-luc reporter plasmid+renilla standard+control pcDNA3.1 plasmid or with the PR1-HRE-luc reporter plasmid+renilla standard+HIF-1α cDNA.\nCultures were pre-incubated with the inhibitors 1 h before the induction of hypoxia or addition of DFO.\nThe cells were plated into 30 mm Petri dishes to reach approximately 60% monolayer density on the next day. Transfection was performed with the 2 μg of PR1-HRE-luc and 100 ng of pRL-TK plasmids DNAs using a GenePorterII reagent (Gene Therapy Systems, San Diego, Calif.) according to the manufacturer's recommendation. One day later, the transfected cells were trypsinized and plated in triplicates into 24-well plates at different densities so that the dense culture contained eight times more cells than the sparse one. The cells were allowed to attach for 20 h, then they were pre-treated with inhibitors for 1 h and transferred to hypoxia (or treated with DFO) for additional 24 h. Reporter gene expression was assessed 48 h after the transfection using the Dual-Luciferase Reporter Assay System (Promega) and the luciferase activity was normalized against the renilla expression.\nTherefore, the Ka13 cells were plated at intermediate density, transfected with the PR1-HRE-luc promoter construct together with the renilla control plasmid and pcDNA3.1 plasmid, pre-treated with the U0126 MAPK pathway inhibitor and exposed to a DFO-induced hypoxia. Parallel dishes were maintained in absence of DFO."}, "[7]": {"settings": "Phase I and II clinical trials; cited from earlier work"}},
  "note": "Entries after “also recorded” stand apart in the source; their conditions may differ.",
  "data": [
    {"compound": "Cn1cnc2c(F)c(Nc3ccc(Br)cc3Cl)c(C(=O)NOCCO)cc21", "note": "[ARRY-142886]", "values": [
      {"measurement": "selectivity for MEK", "setting": "MEK", "result": "high selectivity for MEK"},
      {"measurement": "anti-tumor activity", "setting": "tumor xenograft models", "result": "potent anti-tumor activity"}
    ]},
    {"compound": "O=C(NOC[C@H](O)CO)c1ccc(F)c(F)c1Nc1ccc(I)cc1F", "note": "[PD-0325901]", "values": [
      {"measurement": "anti-tumor activity", "setting": "tumor xenograft models", "result": "potent anti-tumor activity"},
      {"measurement": "solubility", "setting": "[1]", "result": "more soluble"},
      {"measurement": "metabolic stability", "setting": "[2]", "result": "improved metabolic stability"},
      {"measurement": "bioavailability", "setting": "[3]", "result": "improved"}
    ]},
    {"compound": "N#CC(=C(/N)Sc1ccccc1N)/C(C#N)=C(\\N)Sc1ccccc1N", "note": "[U0126]", "values": [
      {"measurement": "PR1-HRE CA9 promoter transcriptional activity (luciferase/renilla ratio)", "setting": "PR1-HRE CA9 promoter [4]; Example 1, HEK293 plated in high density, inhibitor 20 h, normoxia or DFO-induced hypoxia", "result": "down-regulation of the PR1-HRE CA9 promoter activity; also recorded: diminished PR1-HRE transcriptional activity both in normoxia and in hypoxia"},
      {"measurement": "CA9 promoter activity", "setting": "PR1-HRE CA9 promoter [4]; Example 5, HEK293 dense culture exposed to hypoxia, data not shown", "result": "considerably inhibited; also recorded: remarkable reduction"},
      {"measurement": "CA9 promoter activity", "setting": "PR1-HRE CA9 promoter [5]; Example 5, HeLa sparse and dense, normoxia or DFO hypoxia, 20 μM inhibitor", "result": "about fourfold decrease; also recorded: remarkable reduction"},
      {"measurement": "CA9 promoter activity, fraction of control value", "setting": "PR1-HRE CA9 promoter [5]; Example 8, dense hypoxic (1% O2) HeLa, 20 μM U0126, 10 μM LY294002", "result": "about one third"},
      {"measurement": "effect on CA9 promoter activity", "setting": "PR1-HRE CA9 promoter [5]; Example 8, normoxic and sparse HeLa cells, compared with dense hypoxic cells", "result": "less pronounced"},
      {"measurement": "CA IX protein expression (Western blotting)", "setting": "CA IX protein; Example 2, sparse and dense HeLa, normoxia (21% O2) and hypoxia (2% O2)", "result": "evident also at the level of CA IX protein"},
      {"measurement": "endogenous CA IX protein levels", "setting": "CA IX protein; Example 5, HeLa, hypoxia and/or high density", "result": "corresponded with the promoter activities"},
      {"measurement": "CA IX protein level / hypoxic induction of CA IX protein", "setting": "CA IX protein; HeLa", "result": "reduced the CA IX protein level"},
      {"measurement": "PR1-HRE CA9 promoter transcriptional activity", "setting": "PR1-HRE CA9 promoter [6]; Example 3, Ka1.13 cells with control pcDNA3.1 or HIF-1α cDNA", "result": "reduced the CA9 promoter activity in both the presence and absence of HIF-1α; also recorded: diminished transcription from PR1-HRE promoter both in the presence and in the absence of HIF-1α"},
      {"measurement": "CA9 promoter activity, fraction of HIF-1α induced value", "setting": "PR1-HRE CA9 promoter [6]; Example 6, Ka13 co-transfected with wild-type HIF-1α cDNA", "result": "approximately one third"},
      {"measurement": "CA9 promoter activity, remaining fraction", "setting": "PR1-HRE CA9 promoter [6]; Example 6, Ka13 with empty pcDNA3.1 (no HIF-1α), with and without DFO", "result": "less than a half"}
    ]},
    {"compound": "Rencarex: an MN-specific drug tested in Phase I and II clinical trials", "values": [
      {"measurement": "tolerability / drug-related side effects", "setting": "[7]", "result": "well-tolerated, with no serious drug-related side effects"}
    ]},
    {"compound": "mithramycin A [MMA]", "values": [
      {"measurement": "CA IX protein level / hypoxic induction of CA IX protein", "setting": "CA IX protein; HeLa", "result": "reduced the CA IX protein level"}
    ]}
  ]
}
